According to patent US20140017157A1, “ANTITUMOR AGENT COMPRISING CARBON DIOXIDE AS AN ACTIVE INGREDIENT” (NEOCHEMIR INC., priority 2011, published 2014):

How the values were obtained:
[1] = Body weight of tumor-bearing nude mice as an indication of a side effect (Example 5); assay type: in vivo; details: FIG. 12; for weight reduction as an indicator of a side effect compared to the control group: adriamycin 4 mg/kg
Method: MDA-MB-231, a cell line of a malignant breast carcinoma, was subcutaneously implanted in the back of the 18 nude mice of 5 weeks old at 12 million cells/mouse. On the 53rd day after the implantation, body weight and tumor volume of each nude mouse were measured. The mice were divided into the following 4 groups so that the variation in tumor volumes and body weights are reduced. The treatment was done according to Example 1 (Table 5). […] The starting date of the test was defined as the 0 day and each treatment was done on the 1st, 5th, 8th, 12th and 15th day. Tumor volume was calculated by the following equation: (Maximum diameter of implanted tumor mass)×(Minimum diameter of implanted tumor mass)×(Minimum diameter of implanted tumor mass)×½. The measurement of tumor volume was done on the 8th and 15th day after tumor implantation. The measurement of body weights of the nude mice as an indication of a side effect was done on the 8th and 15th day after tumor implantation.

[2] = tested on: breast carcinoma cell line MDA-MB-231; experiment: Antitumor effects (4) of a single dose against the implanted tumors in nude mice (Example 7); assay type: in vivo; details: 3rd day after starting of the treatment; single treatment (CO2 10 minutes; adriamycin 3 mg/kg); FIG. 14
Method: (§1) A breast carcinoma cell line MDA-MB-231, which is […], was subcutaneously implanted in the back of the 23 nude mice of 5 weeks old at 20 million cells/mouse. On the 18th day after the implantation, body weight and tumor volume of each nude mouse were measured. The mice were divided into the following 4 groups so that the variation in tumor volumes and body weights are reduced. The treatment was done according to Example 1 (Table 8), but only once.
(§2) Tumor volume was calculated by the following equation: (Maximum diameter of implanted tumor mass)×(Minimum diameter of implanted tumor mass)×(Minimum diameter of implanted tumor mass)×½. The measurement of tumor volume was done on the 3rd day after starting of the treatment.

cell line LM-8 = experiment: Effects against the implanted highly lung-metastatic tumors in nude mice (Example 8); assay type: in vivo
Method: A cell line LM-8, which is the cell line of a highly lung-metastatic tumor, was subcutaneously implanted in the back of the 11 nude mice of 5 weeks old at 1 million cells/mouse. On the 3rd day after the implantation, body weight and tumor volume of each nude mouse were measured. The mice were divided into two groups so that the variation in tumor volumes and body weights are reduced. That is, one is carbon dioxide absorption group (6 mice) and the other is control group (5 mice) treated in the same way as the carbon dioxide absorption group but without the carbon dioxide absorption treatment. The treatment according to Example 1 was started on the 3rd day after the implantation. The carbon dioxide absorption was done three times-weekly and the treatment was done for 14 days. The carbon dioxide absorption was done a total of 6 times. Tumor volume was calculated by the following equation: (Maximum diameter of implanted tumor mass)×(Minimum diameter of implanted tumor mass)×(Minimum diameter of implanted tumor mass)×½. The measurement of tumor volume was done on the 3rd, 7th, 10th, 14th, 17th and 21st day after the tumor implantation. On the 21st day after the tumor implantation, a lung of each mouse was isolated and the lung weight was measured. The cross-sections of the lung, where the metastasized tumor have been stained by hematoxylin and eosin, were chosen at random and a proportion of the stained area in the cross-section was analyzed by using an image analyzing software ImageJ to obtain the lung metastasis rate of the tumor.

cell line NaraH [3] = experiment: Combined effects with a chemotherapeutic agent against the implanted tumors in nude mice (Example 4); assay type: in vivo; details: t-test; for tumor volume compared to the control group: adriamycin 6 mg/kg, CO2 twice-weekly; for Significance level for control group (tumor volume): P
Method: (§3) A cell line NaraH, which is the cell line of a malignant soft tissue tumor, was subcutaneously implanted in the back of the 17 nude mice of 5 weeks old at 12 million cells/mouse. After the implantation, body weight and tumor volume of each nude mouse were measured. The mice were divided into the following 3 groups so that the variation in tumor volumes and body weights are reduced. The treatment according to Example 1 was started on the 3rd day after the implantation (Table 2).
as §2, with “The treatment was done for 9 days. Tumor” for “Tumor”, “3rd, 7th and 9th” for “3rd”, “tumor implantation.” for “starting of the treatment.”

cell line NaraH [4] = experiment: Antitumor effects (3) against the implanted tumors in nude mice, two regimens (Example 3); assay type: in vivo; details: t-test
Method: as §3, with “An MPH cell” for “A cell”, “the 20” for “the 17”, “volume” for “volume of each nude mouse”, “(Table 1).” for “(Table 2).”
as §2, with “The treatment was done for 16 days. Tumor” for “Tumor”, “3rd, 7th, 10th, 14th and 16th” for “3rd”, “tumor implantation.” for “starting of the treatment.”

MDA-MB-231 = experiment: Combined effects with a chemotherapeutic agent against the implanted malignant breast carcinoma in nude mice (Example 5); assay type: in vivo; details: t-test; for tumor volume compared to the control group: 15th day after tumor implantation (so in the source), adriamycin 4 mg/kg; for Significance level for control group (tumor volume): P, 15th day, Table 6
Method: MDA-MB-231, a cell line of a malignant breast carcinoma, was subcutaneously implanted in the back of the 18 nude mice of 5 weeks old at 12 million cells/mouse. On the 53rd day after the implantation, body weight and tumor volume of each nude mouse were measured. The mice were divided into the following 4 groups so that the variation in tumor volumes and body weights are reduced. The treatment was done according to Example 1 (Table 5).
The starting date of the test was defined as the 0 day and each treatment was done on the 1st, 5th, 8th, 12th and 15th day. Tumor volume was calculated by the following equation: (Maximum diameter of implanted tumor mass)×(Minimum diameter of implanted tumor mass)×(Minimum diameter of implanted tumor mass)×½. The measurement of tumor volume was done on the 8th and 15th day after tumor implantation. The measurement of body weights of the nude mice as an indication of a side effect was done on the 8th and 15th day after tumor implantation.

MFH cell line NaraH [5] = experiment: Antitumor effects (2) against the implanted tumors in nude mice (Example 2); assay type: in vivo
Method: An MFH cell line NaraH, which is the cell line of a malignant soft tissue tumor, was subcutaneously implanted in the back of the 12 nude mice of 5 weeks old at 12 million cells/mouse. After the implantation, body weight and tumor volume of each nude mouse were measured. The mice were divided into 2 groups so that the variation in tumor volumes and body weights are reduced. That is, one is carbon dioxide absorption group and the other is control group treated in the same way as carbon dioxide absorption group but without the carbon dioxide absorption treatment. The treatment according to Example 1 was started on the 3rd day after the implantation. The carbon dioxide absorption was done twice-weekly and the treatment was done for 14 days. The carbon dioxide absorption was done a total of 3 times. Tumor volume was calculated by the following equation: (Maximum diameter of implanted tumor mass)×(Minimum diameter of implanted tumor mass)×(Minimum diameter of implanted tumor mass)×½. The measurement of tumor volume was done on the 3rd, 7th, 10th and 14th day after the tumor implantation.

[6] = Body weight as an indicator of the side effect after a single dose (Example 7); assay type: in vivo, nude mice; details: single treatment (CO2 10 minutes; adriamycin 3 mg/kg); FIG. 15
Method: as §1

MFH cell line NaraH [7] = experiment: Antitumor effects (1) against the implanted tumors in nude mice (Example 1); assay type: in vivo
Method: An MFH cell line NaraH, which is the cell line of a malignant soft tissue tumor, was subcutaneously implanted in the back of the 10 nude mice of 5 weeks old at 12 million cells/mouse. After the implantation, body weight and tumor volume of each nude mouse were measured. The mice were divided into two groups so that the variation in tumor volumes and body weights are reduced. That is, one is carbon dioxide absorption group and the other is control group treated in the same way as carbon dioxide absorption group but without the carbon dioxide absorption treatment. A treatment was started on the 2nd day after the implantation. After anesthetizing all groups by ether inhalation, the treatment was done according to the patent document 7, that is, an absorption aid for carbon dioxide comprising 93.77% by mass of water, 5% by mass of glycerin, 0.65% by mass of carbomer, 0.15% by mass of sodium alginate, 0.15% by mass of sodium dihydrogen phosphate, 0.18% by mass of sodium hydroxide and 0.10% by mass of methylparaben was applied 2 mm thick to the dorsal skin wherein a tumor has been implanted. […] Tumor volume was calculated by the following equation: (Maximum diameter of implanted tumor mass)×(Minimum diameter of implanted tumor mass)×(Minimum diameter of implanted tumor mass)×[…]. […]

[8] = 7th day after tumor implantation
[9] = 9th day after tumor implantation
[10] = 7th day after tumor implantation, Table 3
[11] = 9th day after tumor implantation, Table 4
[12] = 14 days treatment, twice-weekly CO2 absorption

SMILES	weight reduction as an indicator of a side effect compared to the control group [1]	tumor volume relative to initial volume [2]	tumor volume compared to the control group (cell line NaraH [3]; [8])	tumor volume compared to the control group (cell line NaraH [3]; [9])	Significance level for control group (tumor volume) (cell line NaraH [3]; [10])	Significance level for control group (tumor volume) (cell line NaraH [3]; [11])	tumor volume compared to the control group (MDA-MB-231)	Significance level for control group (tumor volume) (MDA-MB-231)	body weight reduction as an indicator of the side effect [6]	further results
O=C=O [carbon dioxide]	significant weight reduction was not found	reduced to two-thirds of initial volumes	statistically significantly reduced	statistically significantly reduced	P < 0.001	P < 0.05	statistically significantly reduced	P < 0.001	not observed	lung weights compared to the control group (cell line LM-8; 21st day after tumor implantation, CO2 three times-weekly, total of 6 times, t-test, FIG. 16): statistically significantly reduced; lung metastasis rates compared to the control group (cell line LM-8; 21st day after tumor implantation, proportion of stained area in lung cross-section, t-test, FIG. 17): statistically significantly reduced; significance level (P) of lung weight reduction compared to the control group (cell line LM-8; 21st day, t-test, FIG. 16): < 0.05; significance level (P) of lung metastasis rate reduction compared to the control group (cell line LM-8; 21st day, t-test, FIG. 17): < 0.05; deaths during the experiment period (cell line LM-8; CO2 three times-weekly for 14 days): no deaths; subcutaneously-implanted tumor volumes compared to the control group (cell line LM-8; CO2 three times-weekly, total of 6 times, t-test, FIG. 18): statistically significantly reduced; significance level (P) of subcutaneously-implanted tumor volume reduction compared to the control group (cell line LM-8; t-test, FIG. 18): < 0.05; tumor volume compared to the control group (cell line NaraH [4]; group of 5 times-weekly administration early in treatment (5 consecutive days from first day), FIG. 4): statistically significantly reduced; tumor volume compared to the control group (cell line NaraH [4]; group of twice-weekly administration, treatment 16 days, FIG. 3): statistically significantly reduced; tumor volume compared to the control group (MFH cell line NaraH [5]; 14th day after tumor implantation, twice-weekly, total of 3 times, t-test, FIG. 2): statistically significantly reduced; deaths during experimental period (MFH cell line NaraH [5]; [12]): no deaths; tumor volume compared to the control group (MFH cell line NaraH [7]; 16th day after tumor implantation, transdermal CO2 absorption 10 minutes, twice-weekly, total of 4 times, t-test, FIG. 1): statistically significantly reduced; deaths during the experiment period (MFH cell line NaraH [7]; [12]): no deaths
COc1cccc2c1C(=O)c1c(O)c3c(c(O)c1C2=O)C[C@@](O)(C(=O)CO)C[C@@H]3O[C@H]1C[C@H](N)[C@H](O)[C@H](C)O1 [chemotherapeutic agent, adriamycin, reference compound]	statistically significant	not changed	statistically significantly reduced	statistically significantly reduced	P < 0.005	P < 0.05	statistically significantly reduced	P < 0.005	reduced	significance level (P) of weight reduction compared to the carbon dioxide-alone group [1]: < 0.05; weight reduction compared to the carbon dioxide-alone group [1]: Significant weight reduction was found
